According to publication PMC12548168, “Pitavastatin is a novel Mcl-1 inhibitor that overcomes paclitaxel resistance in triple-negative breast cancer” (Experimental Hematology & Oncology, 2025):
pKd: −log10 of the molar value.

How the values were obtained:
[1] = target: T1, Mcl-1 (myeloid cell leukemia 1) (Homo sapiens, UniProt Q07820); experiment: surface plasmon resonance (SPR), reference Mcl-1 inhibitor (Supplementary Fig. S2); type: binding
T1 construct: gene MCL1

[2] = target: T1, Mcl-1 (myeloid cell leukemia 1); experiment: surface plasmon resonance (SPR); type: binding

T1 sequence (Q07820 whole entry): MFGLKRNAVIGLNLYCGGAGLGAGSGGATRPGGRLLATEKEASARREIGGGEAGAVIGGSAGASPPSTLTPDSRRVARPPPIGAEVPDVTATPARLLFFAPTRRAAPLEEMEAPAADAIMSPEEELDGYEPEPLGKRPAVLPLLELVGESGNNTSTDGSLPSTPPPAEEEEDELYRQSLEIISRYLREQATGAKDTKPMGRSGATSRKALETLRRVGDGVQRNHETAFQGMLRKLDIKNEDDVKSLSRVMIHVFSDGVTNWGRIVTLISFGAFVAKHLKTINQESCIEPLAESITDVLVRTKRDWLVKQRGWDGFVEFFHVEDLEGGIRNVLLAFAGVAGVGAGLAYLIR

| SMILES | pKd [1] | pKd [2] |
| --- | --- | --- |
| Cc1cc2c(C(C)C)c(O)c(O)c(C=O)c2c(O)c1-c1c(C)cc2c(C(C)C)c(O)c(O)c(C=O)c2c1O [AT101] | 5.02 | – |
| O=C(O)C[C@H](O)C[C@H](O)/C=C/c1c(C2CC2)nc2ccccc2c1-c1ccc(F)cc1 [PITA, Pitavastatin] | – | 5.41 |
